Here are results for seven molecules from ChEMBL document CHEMBL1134195, “Synthesis of analogues of the O-beta-D-ribofuranosyl nucleoside moiety of liposidomycins. Part 2: role of the hydroxyl groups upon the inhibition of MraY” (Bioorg Med Chem Lett, 2001).

The assay in a line: Inhibitory activity against translocase (Mra Y) obtained from bacteria.
For the molecule `NC[C@H]1O[C@@H](OC[C@H]2O[C@@H](n3ccc(=O)[nH]c3=O)C[C@@H]2O)[C@H](O)[C@@H]1O`, the IC50 (commonly the concentration that gives 50% inhibition) was 80 µM.
Consider `NC[C@H]1O[C@@H](OC[C@@H]2CC[C@H](n3ccc(=O)[nH]c3=O)O2)[C@H](O)[C@@H]1O`, for which the midpoint of inhibition, the IC50, lay at 120 µM.
Molecule `NC[C@H]1O[C@@H](OC[C@@H]2C[C@@H](O)[C@H](n3ccc(=O)[nH]c3=O)O2)[C@H](O)[C@@H]1O` had an IC50 of 10 µM.
The same measure for `NC[C@H]1O[C@@H](OC[C@H]2O[C@@H](n3ccc(=O)[nH]c3=O)[C@H](O)[C@@H]2O)C[C@@H]1O`: 115 µM.
Consider `NC[C@H]1O[C@@H](OC[C@H]2O[C@@H](n3ccc(=O)[nH]c3=O)[C@H](O)[C@@H]2O)[C@H](O)[C@@H]1O`, for which the IC50 turned out to be 50 µM. Against the preceding molecule, the IC50 is about 2.3-fold lower.
As for `NC[C@H]1O[C@@H](O[C@@H](CO)[C@H]2O[C@@H](n3ccc(=O)[nH]c3=O)[C@H](O)[C@@H]2O)[C@H](O)[C@@H]1O`, the IC50 was determined as 5 µM.
The same measure for `NC[C@@H]1C[C@@H](O)[C@H](OC[C@H]2O[C@@H](n3ccc(=O)[nH]c3=O)[C@H](O)[C@@H]2O)O1`: over 1000 µM.
